The record followed here is patent US7250417B2, “Arylmethyl triazolo- and imidazopyrazines as c-Met inhibitors” (Sugen Inc., priority 2003, dated 2007).

Structures are written as SMILES. Several values for one entry are separate records, joined by “and”; a condition that tells them apart may be missing. Identical values can stand only once.

T1 sequence (P08581 1078-1345 limits assumed): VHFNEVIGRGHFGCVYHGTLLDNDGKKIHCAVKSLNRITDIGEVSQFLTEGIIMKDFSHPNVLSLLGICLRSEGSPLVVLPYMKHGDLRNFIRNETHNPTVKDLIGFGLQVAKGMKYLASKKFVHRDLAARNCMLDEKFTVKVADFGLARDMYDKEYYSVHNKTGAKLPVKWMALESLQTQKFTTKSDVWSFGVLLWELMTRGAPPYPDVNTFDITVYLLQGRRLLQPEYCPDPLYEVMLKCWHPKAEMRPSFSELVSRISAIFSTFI

The assay addresses T1, c-MET (purified GST fusion protein containing the Met kinase domain) (Homo sapiens, UniProt P08581).
T1 construct: Purified GST fusion protein containing the Met kinase domain, Sugen, Inc
Nature of the assay: Met transphosphorylation assay (ELISA, poly(Glu,Tyr) 4:1 substrate). The class given is biochemical. The note with it: purified GST-Met kinase domain 10 ng/well. The procedure: Met Transphosphorylation Assay
This assay is used to measure phosphotyrosine levels on a poly(glutamic acid:tyrosine (4:1)) substrate as a means for identifying agonists/antagonists of met transphosphorylation of the substrate.
• 1. […] PBS, Gibco Catalog #450-1300EB • 4. 50 mM HEPES • 5. […] Purified GST fusion protein containing the Met kinase domain, Sugen, Inc. • 7. TBST Buffer. • 8. 10% aqueous (MilliQue H2O) DMSO. • 9. […] 2× Kinase Dilution Buffer: for 100 ml, mix 10 mL 1 M HEPES at pH 7.5 with 0.4 mL 5% BSA/PBS, 0.2 mL 0.1 M sodium orthovanadate and 1 mL 5M sodium chloride in 88.4 mL dH2O. • 11. 4× ATP Reaction Mixture: for 10 mL, mix 0.4 mL 1 M manganese chloride and 0.02 mL 0.1 M ATP in 9.56 mL dH2O. • 12. 4× Negative Controls Mixture: for 10 mL, mix 0.4 mL 1 M manganese chloride in 9.6 mL dH2O. • 13. […] 500 mM EDTA. • 15. Antibody Dilution Buffer: for 100 mL, mix 10 mL 5% BSA/PBS, 0.5 mL 5% Camation Instant Milk® in PBS and 0.1 mL 0.1 M sodium orthovanadate in 88.4 mL TBST. • 16. Rabbit polyclonal antophosphotyrosine antibody, Sugen, Inc. • 17. Goat anti-rabbit horseradish peroxidase conjugated antibody, Biosource, Inc. • 18. ABTS Solution: for 1 L, mix 19.21 g citric acid, 35.49 g Na2HPO4 and 500 mg ABTS with sufficient dH2O to make 1 L. • 19. ABTS/H2O2: mix 15 mL ABST solution with 2ILL H2O2 five minutes before use. • 20. 0.2 M HCl Procedure: • 1. Coat ELISA plates with 2 μg Poly(Glu-Tyr) in 100 pL PBS, store overnight at 4° C. • 2. Block plate with 150 μL of 5% BSA/PBS for 60 min. • 3. Wash plate twice with PBS, once with 50 mM Hepes buffer pH 7.4. • 4. Add 50 μl of the diluted kinase to all wells. (Purified kinase is diluted with Kinase Dilution Buffer. Final concentration should be 10 ng/well.) • 5. Add 25 μL of the test compound (in 4% DMSO) or DMSO alone (4% in dH2O) for controls to plate. • 6. Incubate the kinase/compound mixture for 15 minutes. • 7. Add 25 μL of 40 mM MnCl2to the negative control wells. • 8. Add 25 μL ATP/MnCl2 mixture to the all other wells (except the negative controls). Incubate for 5 min. • 9. Add 25 μL 500 mM EDTA to stop reaction. • 10. Wash plate 3× with TBST. 11. Add 100 μL rabbit polyclonal anti-Ptyr diluted 1:10,000 in Antibody Dilution Buffer to each well. Incubate, with shaking, at room temperature for one hour. • 12. Wash plate 3× with TBST. • 13. […] Add 100 μL per well and incubate at room temperature, with shaking, for one hour. • 14. Wash plate 1× with PBS. • 15. Add 100 μl of ABTS/H2O2 solution to each well. • 16. If necessary, stop the development reaction with the addition of 100 μl of 0.2M HCl per well. • 17.
A general note: An ELISA detects its analyte on a solid surface through an enzyme-linked reagent.
By IC50 is commonly meant the concentration at which inhibition is half-maximal. High values mean weaker potency, low ones greater potency. Compound `Fc1ccc(Cn2nnc3ncc(-c4cc5ccccc5[nH]4)nc32)cc1` [Example 12, 1-(4-Fluoro-benzyl)-6-(1H-indol-2-yl)-1H-[1,2,3]triazolo[4,5-b]pyrazine] gave an IC50 of 1.15 µM.

Regarding `Fc1ccc(Cn2cnc3ncc(-c4ccc(OCCN5CCOCC5)cc4)nc32)cc1` [Example 7, 1-(4-Fluoro-benzyl)-6-[4-(2-morpholin-4-yl-ethoxy)-phenyl]-1H-imidazo[4,5-b]pyrazine], the IC50 was above 20 µM.

For the compound `Fc1ccc(Cn2nnc3ncc(-c4cccc(OCCN5CCOCC5)c4)nc32)cc1` [Example 10, 1-(4-Fluoro-benzyl)-6-[3-(2-morpholin-4-yl-ethoxy)-phenyl]-1H-[1,2,3]triazolo[4,5-b]pyrazine], the IC50 stood at 1 µM.

The compound `Fc1ccc(Cn2nnc3ncc(-c4cccs4)nc32)cc1` [Example 9, 1-(4-Fluoro-benzyl)-6-thiophen-2-yl-1H-[1,2,3]triazolo[4,5-b]pyrazine] showed a half-maximal inhibitory concentration (IC50) of 0.16 µM.

`Oc1ccc(Cn2cnc3ncc(-c4cccs4)nc32)cc1` [Example 1, 4-(6-Thiophen-2-yl-imidazo[4,5-b]pyrazin-1-ylmethyl)-phenol]: the IC50 is 0.15 µM.

As for `Fc1ccc(Cn2cnc3ncc(-c4cccs4)nc32)cc1` [Example 4, 1-(4-Fluoro-benzyl)-6-thiophen-2-yl-1 H-imidazo[4,5-b]pyrazine], the IC50 is above 20 µM.

Consider `Oc1ccc(Cn2cnc3ncc(Br)cc32)cc1` [Example 14, 4-(6-Bromo-imidazo[4,5-b]pyridin-1-ylmethyl)-phenol], for which the IC50 amounted to 9.6 µM.

`COc1ccc(Cn2cnc3ncc(-c4ccc(F)cc4)nc32)cc1` [Example 2, 6-(4-Fluoro-phenyl)-1-(4-methoxy-benzyl)-1H-imidazo[4,5-b]pyrazine] returned an IC50 of 1.79 µM.

Compound `COc1ccc(Cn2cnc3ncc(Br)cc32)cc1` [Example 13, 6-Bromo-1-(4-methoxy-benzyl)-1H-imidazo[4,5-b]pyridine] displayed an IC50 above 20 µM.

The compound `Fc1ccc(Cn2nnc3ncc(-c4ccc(OCCN5CCOCC5)cc4)nc32)cc1` [Example 11, 1-(4-Fluoro-benzyl)-6-[4-(2-morpholin-4-yl-ethoxy)-phenyl]-1H-[1,2,3]triazolo[4,5-b]pyrazine] came in with an IC50 of 0.17 µM.

`Fc1ccc(Cn2cnc3ncc(-c4ccc(F)cc4)nc32)cc1` [Example 5, 1-(4-Fluoro-benzyl)-6-(4-fluoro-phenyl)-1H-imidazo[4,5-b]pyrazine] showed an IC50 above 20 µM.

With `Fc1ccc(Cn2nnc3ncc(Br)nc32)cc1` [Example 8, 6-Bromo-1-(4-fluoro-benzyl)-1H-[1,2,3]triazolo[4,5-b]pyrazine], the IC50 was 0.31 µM and 1.71 µM.

`Fc1ccc(Cn2cnc3ncc(-c4cccc(OCCN5CCOCC5)c4)nc32)cc1` [Example 6, 1-(4-Fluoro-benzyl)-6-[3-(2-morpholin-4-yl-ethoxy)-phenyl]-1H-imidazo[4,5-b]pyrazine] returned an IC50 above 20 µM.
